# Assay results: PMC11523249, “Expanding the antiprotozoal activity and the mechanism of action of n-butyl and iso-butyl ester of quinoxaline-1,4-di-N-oxide derivatives against Giardia lamblia, Trichomonas vaginalis, and Entamoeba histolytica. An in vitro and in silico approach” (Journal of Enzyme Inhibition and Medicinal Chemistry, 2024)
# Where two headings read alike, the source gives them in different places.
# Assays:
# [1] = biological target: T1, recombinant E. histolytica thioredoxin reductase (EhTRXR) (Entamoeba histolytica, UniProt C4LW95); set-up: method as in earlier work; details: ref 34 (Sóto-Sánchez et al. 2020); cited from earlier work
# T1 construct: His-tag (pET28a) (N); made in house; host or cells: E. coli BL21 (DE3)
# T1 sequence (C4LW95 1-314): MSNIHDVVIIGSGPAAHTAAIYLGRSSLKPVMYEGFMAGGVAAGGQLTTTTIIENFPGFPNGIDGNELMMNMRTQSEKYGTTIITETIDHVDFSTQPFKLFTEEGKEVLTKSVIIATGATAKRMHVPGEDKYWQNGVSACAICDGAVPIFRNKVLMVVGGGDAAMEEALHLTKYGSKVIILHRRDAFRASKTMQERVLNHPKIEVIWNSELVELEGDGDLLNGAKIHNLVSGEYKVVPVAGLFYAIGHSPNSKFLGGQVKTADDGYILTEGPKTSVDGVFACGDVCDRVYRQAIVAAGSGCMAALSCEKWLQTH
# G. lamblia WB strain = assay: In vitro susceptibility assay, G. lamblia trophozoites; format: cell-based, Giardia lamblia; details: for Selectivity index, G. lamblia versus macrophages: CC50 J774.2 / IC50 G. lamblia
# Experimental: (§1) G. lamblia WB strain, T. vaginalis GT3 strain, and E. histolytica strain HM1-IMSS were used in all experiments, all parasitic strains were obtained from the Unidad de Investigación Médica en Enfermedades Infecciosas y Parasitarias, Hospital de Pediatría, Instituto Mexicano del Seguro Social. In vitro susceptibility assays to determine IC50 values were performed using a method previously described. For this, 4 × 10^4 G. lamblia; 6 × 10^3 E. histolytica, or 4 × 10^4 T. vaginalis trophozoites were incubated for 48 h at 37 °C with different concentrations of quinoxaline derivatives T-137 to T-170 (0.5 ng/mL to 10 μg/mL) using dimethyl sulfoxide (DMSO) (0.05%) as solvent. Metronidazole and albendazole were used as positive controls, and parasites in the medium without drugs containing DMSO (0.05%) were included as negative controls. At the end of the incubation period, trophozoites were washed and subcultured for another 48 h in a fresh medium without drugs. Then, trophozoites were counted with a haemocytometer and the IC50 was calculated by Probit analysis. Experiments were carried out in triplicate and repeated at least twice.
# T. vaginalis GT3 strain = assay: In vitro susceptibility assay, T. vaginalis trophozoites; format: cell-based, Trichomonas vaginalis
# Experimental: as §1
# [2] = system: E. histolytica strain HM1-IMSS; assay: In vitro susceptibility assay, E. histolytica trophozoites; format: cell-based, Entamoeba histolytica; details: for IC50: Entamoeba histolytica, 48 h, read-out: E. histolytica (IC50 nM), trophozoites, 48 h at 37 °C, subcultured 48 h, Probit analysis
# Experimental: as §1
# [3] = system: murine macrophage cell line J774.2; assay: Cytotoxic evaluation, MTT colorimetric assay; format: cell-based; details: murine macrophages J774.2, read-out: Cytotoxicity (Macrophages J774.2) (CC50)
# Experimental: (§2) The murine macrophage cell line J774.2 was maintained in culture flasks with RPMI 1640 medium supplemented with 10% FBS, and 100 U/mL antibiotic-antifungal mixture (Gibco). Cells were incubated at 37 °C with 5% CO2 and humidity. Murine macrophage cell line J774.2 is maintained at Laboratorio de Estudios Epidemiológicos, Clínicos, Diseños Experimentales e Investigación, Facultad de Ciencias Químicas, Universidad Autónoma “Benito Juárez” de Oaxaca. Macrophages were washed and viability was assessed by the MTT colorimetric assay. In a 96-well microplate, 1 × 10^5 macrophages were added per well and a dose-response assay was performed. Compounds were evaluated using serial dilutions to determine half-maximal cytotoxic concentration (CC50) values in triplicate considering 0.2% DMSO as negative control.
# recombinant GlTIM [4] = biological target: T2, recombinant GlTIM (Giardia intestinalis, UniProt P36186); assay: Inhibition of recombinant GlTIM enzyme activity; format: biochemical, Giardia lamblia
# T2 construct: His-tag with TEV site (pET3a-HisTEV); made in house; host or cells: Escherichia coli BL21(DE3) pLys
# Experimental: Escherichia coli BL21(DE3) pLys bacteria containing the plasmid pET3a-HisTEV with the gene coding for GlTIM wild type were grown in LB medium supplemented with 0.1 mg/mL ampicillin and incubated at 37 °C[40]. When the cultures reached Abs600 = 0.8, they were induced to express the recombinant enzyme using 0.4 mM IPTG and incubated overnight at 30 °C with shaking at 180 rpm. After induction and growth, the bacteria were collected by centrifugation (6500 rpm, 15 min) and suspended in 40 mL of lysis buffer (pH 8.0) containing 50 mM Tris, 50 mM NaCl, 5 mM β-mercaptoethanol, and 1 mM phenylmethylsulfonyl fluoride (PMSF). The bacterial suspension was disrupted by sonication and centrifuged at 9000 rpm for 1 h, at 4 °C. Protein purification was performed via IMAC using a Profinity Ni^2+ charged resin previously equilibrated with lysis buffer. The soluble protein fraction was mixed with the equilibrated Ni^2+ charged resin and incubated at room temperature with shaking for 30 min. Then, the column was washed with the same buffer (10 column volumes) to remove proteins without the His-tag sequence. The desired proteins were eluted with lysis buffer containing 200 mM imidazole and adjusted to pH 8.0. The purified protein was concentrated using Amicon ultrafiltration units. The purity of the enzymes was analysed via sodium dodecyl sulfate-polyacrylamide gel electrophoresis (16% SDS–PAGE gel) and stained with colloidal Coomassie Brilliant Blue. The enzyme concentration was spectrophotometrically determined (Spectrophotometer Cary 50, Varian Inc.) at 280 nm using the extinction coefficient ε280 = 26,600 M^−1 cm^−1.
# (§3) For the inhibition assays, freshly purified recombinant GlTIM was incubated at 0.2 mg/mL for 2 h at 37 °C in the presence of 500 μM of each n-butyl and iso-butyl quinoxaline-7-carboxylate-1,4-di-N-oxide derivatives. After incubation, the samples were diluted, and 5 ng/mL were taken to measure their enzymatic activity. Enzyme activity was spectrophotometrically measured (Spectrophotometer Cary 50, Agilent Technologies, CA, USA) by following DHAP synthesis with a coupled system that followed the oxidation of NADH at 340 nm[41]. Results are expressed as the percent activity versus each compound at 500 μM, with the enzyme activity without any drug set as 100%. Additionally, GlTIM and HsTIM (separately) were incubated at 0.2 mg/mL for 2 h at 37 °C in the presence of 5, 10, 50, 150, 250, 350, and 500 μM of the T-167 derivative. Results are expressed as the percent activity versus T-167 concentration. All results represent the arithmetic mean of at least four independent experiments.
# [5] = biological target: T1, recombinant E. histolytica thioredoxin reductase (EhTRXR); assay: Inhibition of EhTrxR DTNB reductase activity; format: biochemical; details: for inhibition at 100 µM: pH 7, read-out: EhTrxR inhibitory effect (disulphide reductase activity)
# Experimental: Recombinant E. histolytica thioredoxin reductase (EhTRXR) was expressed in E. coli BL21 (DE3) as His-tag (N-terminal) recombinant proteins using pET28a vector, and it was purified using IMAC as previously described. 5,5′-Dithiobis(2-nitrobenzoic acid) (DTNB) reductase activity was measured by monitoring the production of thionitrobenzoate at 405 nm in a reaction mixture comprising 50 mM potassium phosphate, pH 7.0, 2 mM EDTA, 300 µM NADPH, 5 mM DTNB, and 0.1 µM EhTRXR. Activity was calculated using the molar extinction coefficient at 405 nm of 13.6 mM^−1cm^− 1 and considering that 1 mol of NADPH yields 2 mol of thionitrobenzoate. The enzyme assays were performed at 30 °C, in a final volume of 50 μL, and using a Multiskan Ascent one-channel vertical light path filter photometer (Thermo Electron Co.). All results represent the arithmetic mean of at three independent experiments.
# [6] = system: G. lamblia trophozoites (WB strain); assay: Attachment and viability of G. lamblia trophozoites; format: cell-based, Giardia lamblia; details: for Concentration at which detachment and cytotoxicity took impact: 24 h of incubation at 37 °C; for Detachment of trophozoites: cultures incubated with compound
# Experimental: Cytotoxicity of a drug is not the only important characteristic to cope with the pathogenesis of G. lamblia. It is known that the attachment of the trophozoites to the microvillus border of the small intestine is a crucial step for causing disease. […] T-143 and T-146 had the highest cytotoxic effect on giardia trophozoites (Figure 2(A,B), respectively). Detachment of trophozoites in cultures incubated with T-146 or T-161 was undetectable, with their impact directly through cytotoxicity (Figure 2(B)).
# human TIM (HsTIM) = biological target: T3, human TIM (HsTIM) (Homo sapiens, UniProt P60174); assay: Inhibition of recombinant HsTIM enzyme activity; format: biochemical
# T3 construct: His-tag with TEV site (pET3a-HisTEV); made in house; host or cells: E. coli BL21-CodonPlus (DE3)-RIL
# Experimental: Expression of human TIM (HsTIM) was performed by using the E. coli BL21-CodonPlus (DE3)-RIL strain (Stratagene) containing the plasmid pET3a-HisTEV with the gene coding for HsTIM. Expression and purification steps were as above-mentioned for GlTIM. The enzyme concentration was spectrophotometrically determined (Spectrophotometer Cary 50, Varian Inc.) at 280 nm using the extinction coefficient ε280 = 33,460 M^−1 cm^−1.
# as §3
# [7] = Cytotoxic evaluation, MTT colorimetric assay; format: cell-based; details: mouse, J774.2 macrophage cell line, murine macrophages J774.2, read-out: Cytotoxicity (Macrophages J774.2) (CC50)
# Experimental: as §2
# recombinant GlTIM [8] = biological target: T2, recombinant GlTIM; set-up: method as in PMID 25223993; details: cited from earlier work
# [9] = Giardia duodenalis, 48 h, read-out: G. lamblia (IC50 nM), trophozoites, 48 h at 37 °C, subcultured 48 h, Probit analysis
# [10] = read-out: G. lamblia (IC50 nM), trophozoites, 48 h at 37 °C, subcultured 48 h, Probit analysis
# [11] = Trichomonas vaginalis, GT3, 48 h, read-out: T. vaginalis (IC50 nM), trophozoites, 48 h at 37 °C, subcultured 48 h, Probit analysis
# [12] = read-out: T. vaginalis (IC50 nM), trophozoites, 48 h at 37 °C, subcultured 48 h, Probit analysis
# T3 sequence (P60174 whole entry): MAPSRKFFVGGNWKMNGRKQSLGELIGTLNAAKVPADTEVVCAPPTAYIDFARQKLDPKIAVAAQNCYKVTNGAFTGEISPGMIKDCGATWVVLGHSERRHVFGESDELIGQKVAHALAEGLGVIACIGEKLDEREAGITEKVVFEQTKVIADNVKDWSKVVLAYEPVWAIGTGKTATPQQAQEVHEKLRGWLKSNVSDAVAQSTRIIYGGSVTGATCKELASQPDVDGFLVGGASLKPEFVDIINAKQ
# T2 sequence (P36186 whole entry): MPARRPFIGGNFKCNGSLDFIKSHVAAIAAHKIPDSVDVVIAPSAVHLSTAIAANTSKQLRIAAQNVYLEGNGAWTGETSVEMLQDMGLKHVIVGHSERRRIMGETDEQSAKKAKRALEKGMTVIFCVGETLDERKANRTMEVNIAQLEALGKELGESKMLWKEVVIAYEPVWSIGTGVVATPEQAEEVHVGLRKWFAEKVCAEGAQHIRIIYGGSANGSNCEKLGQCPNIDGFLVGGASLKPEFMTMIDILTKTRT
Compound,IC50 (G. lamblia WB strain; [9]),IC50 (G. lamblia WB strain; [10]),IC50 (T. vaginalis GT3 strain; [11]),IC50 (T. vaginalis GT3 strain; [12]),IC50 [2],CC50 [3],"inhibition at 500 µM (recombinant GlTIM [4]; 500 µM compound, 2 h at 37 °C)",inhibition at 100 µM [5],Concentration at which detachment and cytotoxicity took impact [6],other results
CCOC(=O)c1c(C(F)(F)F)[n+]([O-])c2ccc(C(=O)OC(C)C)cc2[n+]1[O-] [Compound T-116],–,–,–,–,–,–,–,–,–,IC50 [1]: 28000 nM
CCCCOC(=O)c1ccc2c(c1)[n+]([O-])c(C(=O)Nc1ccc(Cl)cc1)c(C)[n+]2[O-] [Compound T-143],< 30 nM,29.1 ± 5.83 nM,< 90 nM,45.2 ± 6.99 nM,15.1 ± 2.33 nM,50300 ± 2800 nM,43.7%,50 to 75%,25 µM,"Selectivity index, G. lamblia versus macrophages (G. lamblia WB strain): 1726 fold; Selectivity index, T. vaginalis versus macrophages (T. vaginalis GT3 strain; CC50 J774.2 / IC50 T. vaginalis): 1112 fold; Selectivity index, E. histolytica versus macrophages ([2]; CC50 J774.2 / IC50 E. histolytica): 3321 fold"
CCCCOC(=O)c1ccc2c(c1)[n+]([O-])c(C(=O)OCC)c(C(F)(F)F)[n+]2[O-] [Compound T-146],< 30 nM,26.1 ± 6.22 nM,~100 nM,102 ± 2.49 nM,64.7 ± 3.73 nM,> 200000 nM,37.3%,50 to 75%,25 µM,Detachment of trophozoites [6]: undetectable
Cc1c(C(=O)Nc2ccc(Cl)cc2)[n+]([O-])c2cc(C(=O)OCC(C)C)ccc2[n+]1[O-] [Compound T-161],120 ± 1.16 nM,–,137 ± 3.5 nM,–,29.1 ± 3.5 nM,–,19.7%,> 75%,25 µM,"IC50 ([5]; DTNB reductase activity, 30 °C, pH 7.0): 18000 nM; Detachment of trophozoites [6]: undetectable"
CC(=O)c1c(C(F)(F)F)[n+]([O-])c2ccc(C(=O)OCC(C)C)cc2[n+]1[O-] [Compound T-167],< 30 nM,25.5 ± 1.34 nM,< 90 nM,90 ± 6.72 nM,64.5 ± 5.38 nM,25400 ± 81.5 nM,99.7%,–,25 µM,"Selectivity index, G. lamblia versus macrophages (G. lamblia WB strain): 994 fold; inhibition at 10 µM (recombinant GlTIM [4]; 10 µM T-167, 2 h at 37 °C): > 20%; GlTIM inhibition (recombinant GlTIM [4]; 500 µM compound, 2 h at 37 °C): wholly inhibited; GlTIM residual activity (recombinant GlTIM [4]; 50 to 350 µM T-167): ~25%; Decrease of GlTIM enzyme activity (recombinant GlTIM [4]; <10 to 50 µM T-167): above 70%; Effect on HsTIM enzyme activity (human TIM (HsTIM); 10 µM T-167, 2 h at 37 °C): unaffected; HsTIM retained activity (human TIM (HsTIM); 500 µM T-167, when GlTIM activity is completely depleted): more than 75%; HsTIM loss of activity (human TIM (HsTIM); 50 to 350 µM T-167): no more than 10%"
CC(=O)c1c(-c2ccccc2)[n+]([O-])c2ccc(C(=O)OCC(C)C)cc2[n+]1[O-] [Compound T-168],39.5 ± 2.63 nM,–,150 ± 14.5 nM,–,50 ± 2.63 nM,–,–,–,–,CC50 [7]: 28500 ± 1690 nM
CC(=O)c1c(Nc2ccc(C)cc2C)[n+]([O-])c2ccc(C(=O)OCC(C)C)cc2[n+]1[O-] [Compound T-170],109 ± 3.55 nM,–,130 ± 8.27 nM,–,33.1 ± 2.36 nM,–,–,–,–,CC50 [7]: > 200000 nM
COc1ccc2[nH]c([S+]([O-])Cc3ncc(C)c(OC)c3C)nc2c1 (stereo not drawn) [omeprazole],–,–,–,–,–,–,–,–,–,Concentration attaining 70% inhibition of GlTIM (recombinant GlTIM [8]): about 300 µM; Concentration wholly inhibiting GlTIM activity (recombinant GlTIM [8]): 750 µM
